Among the data in US10654818B2, “Furane derivatives as inhibitors of ATAD2” (BAYER PHARMA AKTIENGESELLSCHAFT, priority 2015, dated 2020) are IC50 values, retold here.

pIC50: −log10 of the molar value.

The target of the assay is T1, recombinant, N-terminally GST-tagged ATAD2 bromodomain amino acids 981-1108 (Homo sapiens, UniProt Q6PL18).
T1 construct: ATAD2 bromodomain amino acids 981-1108; made in house; host or cells: E. coli
T1 sequence (Q6PL18 981-1108): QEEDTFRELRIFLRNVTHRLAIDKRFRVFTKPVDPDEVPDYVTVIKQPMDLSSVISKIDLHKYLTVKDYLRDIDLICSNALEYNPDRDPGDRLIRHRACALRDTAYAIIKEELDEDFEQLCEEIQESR
Description: TR-FRET assay: disruption of the interaction between ATAD2 and acetylated Histone H4 (Ac-H4) peptide. It is filed as binding. To be noted: inhibition of ATAD2/Ac-H4 complex formation; 10 nM ATAD2, 50 nM Ac-H4 peptide. From the text: The ability of the compounds described in the present invention to disrupt the interaction between ATAD2 and acetylated Histone H4 (Ac-H4) was used as quantitative measure of their ATAD2-binding affinities.
To this end a TR-FRET assay which detects the binding of an Ac-H4-derived synthetic peptide (purchased from e.g. Biosyntan (Berlin, Germany)) of sequence HSGRGKGGGGKGLGK(Ac)GGAKRHRK-Biotin to recombinant, N-terminally GST-tagged ATAD2 bromodomain amino acids 981-1108. The protein was produced in-house via E. coli expression followed by GSH-Sepharose affinity- and Superdex S200-size exclusion chromatography purification.
Typically, 11 different concentrations of each compound (0.1 nM, 0.33 nM, 1.1 nM, 3.8 nM, 13 nM, 44 nM, 0.15 μM, 0.51 μM, 1.7 μM, 5.9 μM and 20 μM) were tested in duplicate within the same microtiter plate. To this end, 100-fold concentrated compound solutions (in DMSO) were previously prepared with a Precision Pippeting System (BioTek) by serial dilution (1:3.4) of 2 mM stocks in clear, low-volume 384-well microtiter source plates (Greiner Bio-One). Subsequently, 50 nl of compounds were transferred into black, low-volume test plates from the same supplier using a Hummingbird capillary based liquid handling instrument (Digilab). Tests were started by the addition of 2 μl of 2.5-fold concentrated ATAD2 solution (25 nM=10 nM final concentration in the 5 μl assay volume) in aqueous assay buffer [50 mM HEPES pH 7.5, 50 mM potassium fluoride (KF), 100 mM sodium chloride (NaCl), 0.25 mM CHAPS, 0.05% bovine serum albumine (BSA) and 1 mM dithiothreitol (DTT)] to the compounds in the test plate with a Multidrop dispenser (Thermo-Fisher). Test plates were then incubated 10′ at 22° C., in order to allow pre-equilibration of putative compound-ATAD2 complexes. Subsequently, 3 μl of a 1.67-fold concentrated solution containing Ac-H4 peptide (83.5 nM=50 nM final concentration) and TR-FRET detection reagents [16.7 nM Anti-GST-XL665 (Cisbio), =10 nM final concentration and 4.17 nM Lance EU W-1024 Streptavidin Europium Chelate (Perkin-Elmer)=2.5 nM final concentration were dispensed into the plates.
The mixture was further incubated in the dark for 1 hour at 22° C. Finally the inhibition of the formation of ATAD2/Ac-H4 complexes was assessed by measurement of the resonance energy transfer from the Streptavidin-Eu-Chelate to the anti-GST-XL665 antibody present in the reaction. To this end, the fluorescence emissions at 622 nm and 665 nm after excitation at 337 nm were measured in a TR-FRET reader, e.g. a Rubystar or Pherastar (both from BMG Lab Technologies) or a Viewlux (Perkin-Elmer) and the ratio of the emissions at 665 nm and at 622 nm was taken as indicator for the amount of ATAD2/Ac-H4 complexes in equilibrium.
The data were normalized using two sets of control wells (16 each). The first accounted for 100% ATAD2/Ac-H4 binding (0% inhibition), and contained all reaction components but DMSO instead of inhibitors. The second represented 0% ATAD2/Ac-H4 binding (100% inhibition), and included all assay components except ATAD2. IC50 values were calculated by fitting the normalized inhibition data to a 4-parameter logistic equation using either Screener software (Genedata) or a Bayer-proprietary analysis software.
With `Cc1ccc([C@@H](C)NCc2ccc(-c3ccc(Cl)c(C(=O)N[C@H](Cc4ccc(C#N)cc4)c4ncn[nH]4)c3)o2)cc1` [Example 20, 2-chloro-N-[(1R)-2-(4-cyanophenyl)-1-(1H-1,2,4-triazol-5-yl)ethyl]-5-[5-({[(1R)-1-(4-methylphenyl)ethyl]amino}methyl)-2-furyl]benzamide], the pIC50 is 6.14. The value for `Cc1ccc([C@@H](C)NCc2ccc(-c3ccc(Cl)c(C(=O)N[C@@H](CNC4CCN(C)CC4)Cc4ccc(C#N)cc4)c3)o2)cc1` [Example 58, 2-chloro-N-{(2R)-1-(4-cyanophenyl)-3-[(1-methylpiperidin-4-yl)amino]propan-2-yl}-5-[5-({[(1R)-1-(4-methylphenyl)ethyl]amino}methyl)-2-furyl]benzamide] was 6.76; that for `Cc1ccc([C@@H](C)NCc2ccc(-c3ccc(Cl)c(C(=O)N[C@@H](CNC4CCNC(C)(C)C4)Cc4ccc(C#N)cc4)c3)o2)cc1` (mixture of isomers) [Example 68] was 6.96; that for `CNC(=O)C[C@@H](Cc1ccc(C#N)cc1)NC(=O)c1cc(-c2ccc(CN[C@H](C)c3ccc(Cl)cc3)o2)ccc1Cl` [Example 89, 2-chloro-5-[5-({[(1R)-1-(4-chlorophenyl)ethyl]amino}methyl)-2-furyl]-N-[(2R)-1-(4-cyanophenyl)-4-(methylamino)-4-oxobutan-2-yl]benzamide] was 5.69. Consider `Cc1ccc([C@@H](C)NCc2ccc(-c3ccc(Cl)c(C(=O)N[C@@H](CO)Cc4ccccc4)c3)o2)cc1` [Example 96], for which the pIC50 was 5.58. The value for `Cc1ccc([C@@H](C)NCc2ccc(-c3ccc(Cl)c(C(=O)N[C@H](Cc4ccc(C#N)cc4)[C@@H](C)O)c3)o2)cc1` [Example 16, 2-chloro-N-[(2R,3R)-1-(4-cyanophenyl)-3-hydroxybutan-2-yl]-5-[5-({[(1R)-1-(4-methylphenyl)ethyl]amino}methyl)-2-furyl]benzamide] was 6.24. For `Cc1ccc([C@@H](C)NCc2ccc(-c3ccc(Cl)c(C(=O)N[C@H](Cc4ccc(C#N)cc4)[C@@H](O)CC(C)C)c3)o2)cc1` [Example 46, 2-chloro-N-[(2R,3S)-1-(4-cyanophenyl)-3-hydroxy-5-methylhexan-2-yl]-5-[5-({[(1R)-1-(4-methylphenyl)ethyl]amino}methyl)-2-furyl]benzamide], the pIC50 is 5.96.

For the compound `COc1cc(Cl)c(C(=O)N[C@H](Cc2ccc(C#N)cc2)C(=O)N[C@H]2CC[C@H](N)CC2)cc1-c1ccc(CN[C@H](C)c2ccc(C)cc2)o1` [Example 85, N-(trans-4-aminocyclohexyl)-Nα-{2-chloro-4-methoxy-5-[5-({[(1R)-1-(4-methylphenyl)ethyl]amino}methyl)-2-furyl]benzoyl}-4-cyano-D-phenylalaninamide], the negative logarithm of the IC50 (pIC50) is 6.38. The value for `Cc1ccc([C@@H](C)NCc2ccc(-c3ccc(Cl)c(C(=O)N[C@@H](CCN4CCN[C@@H](C)C4)Cc4ccc(C#N)cc4)c3)o2)cc1` [Example 28, 2-chloro-N-{(2R)-1-(4-cyanophenyl)-4-[(3S)-3-methylpiperazin-1-yl]butan-2-yl}-5-[5-({[(1R)-1-(4-methylphenyl)ethyl]amino}methyl)-2-furyl]benzamide] was 6.83; that for `Cc1ccc([C@@H](C)NCc2ccc(-c3ccc(Cl)c(C(=O)N[C@@H](CNC(=O)CC4CCNCC4)Cc4ccc(C#N)cc4)c3)o2)cc1` [Example 57, 2-chloro-N-{(2R)-1-(4-cyanophenyl)-3-[(piperidin-4-ylacetyl)amino]propan-2-yl}-5-[5-({[(1R)-1-(4-methylphenyl)ethyl]amino}methyl)-2-furyl]benzamide] was 6.28.

As to `Cc1ccc([C@@H](C)NCc2ccc(-c3ccc(Cl)c(C(=O)N[C@@H](CNC4CCN(C(=O)OC(C)(C)C)CC4)Cc4ccc(C#N)cc4)c3)o2)cc1` [Example 64], the pIC50 was 5.93. As for `CCN1CCC(NC[C@@H](Cc2ccc(C#N)cc2)NC(=O)c2cc(-c3ccc(CN[C@H](C)c4ccc(C)cc4)o3)ccc2Cl)CC1` [Example 62], the pIC50 was 6.48. On to `Cc1ccc([C@@H](C)NCc2ccc(-c3ccc(Cl)c(C(=O)N[C@@H](CCNC(C)C)Cc4ccc(C#N)cc4)c3)o2)cc1` [Example 26, 2-chloro-N-[(2R)-1-(4-cyanophenyl)-4-(isopropylamino)butan-2-yl]-5-[5-({[(1R)-1-(4-methylphenyl)ethyl]amino}methyl)-2-furyl]benzamide], for which the negative-log IC50 (pIC50) is 6.48. Regarding `Cc1ccc([C@@H](C)NCc2ccc(-c3ccc(Cl)c(C(=O)N[C@@H](CNC4CCNCC4)Cc4ccc(C#N)cc4)c3)o2)cc1` [Example 67], the negative logarithm of the IC50 (pIC50) was 6.58. With `Cc1ccc([C@@H](C)NCc2ccc(-c3ccc(Cl)c(C(=O)N[C@@H](CO)Cc4ccc(I)cc4)c3)o2)cc1` [Example 18, 2-chloro-N-[(2R)-1-hydroxy-3-(4-iodophenyl)propan-2-yl]-5-[5-({[(1R)-1-(4-methylphenyl)ethyl]amino}methyl)-2-furyl]benzamide] the figure was 5.95; with `Cc1ccc([C@@H](C)NCc2ccc(-c3cc(C(=O)N[C@@H](CO)Cc4ccc(C#N)cc4)c(Cl)cc3Cl)o2)cc1` [Example 78, 2,4-dichloro-N-[(2R)-1-(4-cyanophenyl)-3-hydroxypropan-2-yl]-5-[5-({[(1R)-1-(4-methylphenyl)ethyl]amino}methyl)-2-furyl]benzamide], 5.91; with `Cc1ccc([C@@H](C)NCc2ccc(-c3ccc(Cl)c(C(=O)N[C@H](Cc4ccc(C#N)cc4)CN4CCN(C)CC4)c3)o2)cc1` [Example 21, 2-chloro-N-[(2R)-1-(4-cyanophenyl)-3-(4-methylpiperazin-1-yl)propan-2-yl]-5-[5-({[(1R)-1-(4-methylphenyl)ethyl]amino}methyl)-2-furyl]benzamide], 6.24. Turning to `COc1cc(C)c(C(=O)N[C@@H](CO)Cc2ccc(C#N)cc2)cc1-c1ccc(CN[C@H](C)c2ccc(C)cc2)o1` [Example 80, N-[(2R)-1-(4-cyanophenyl)-3-hydroxypropan-2-yl]-4-methoxy-2-methyl-5-[5-({[(1R)-1-(4-methylphenyl)ethyl]amino}methyl)-2-furyl]benzamide], the pIC50 is 6.39. `CNC(=O)C[C@@H](Cc1ccc(C#N)cc1)NC(=O)c1cc(-c2ccc(CNC(C)(C)c3ccc(C)cc3)o2)ccc1Cl` [Example 94]: the pIC50 was 5.53. With `Cc1ccc([C@@H](C)NCc2ccc(-c3ccc(Cl)c(C(=O)N[C@@H](CC(=O)N4CCCC4)Cc4ccc(C#N)cc4)c3)o2)cc1` [Example 9, 2-chloro-N-[(2R)-1-(4-cyanophenyl)-4-oxo-4-(pyrrolidin-1-yl)butan-2-yl]-5-[5-({[(1R)-1-(4-methylphenyl)ethyl]amino}methyl)-2-furyl]benzamide], the pIC50 was 6.13. Regarding `Cc1ccc([C@@H](C)NCc2ccc(-c3ccc(Cl)c(C(=O)N[C@@H](CNC4CCN(CC(C)C)CC4)Cc4ccc(C#N)cc4)c3)o2)cc1` [Example 63], the negative logarithm of the IC50 (pIC50) is 6.49. As to `COC(=O)C[C@@H](Cc1ccc(C#N)cc1)NC(=O)c1cc(-c2ccc(CN[C@H](C)c3ccc(C)cc3)o2)ccc1Cl` [Example 50, methyl (3R)-3-({2-chloro-5-[5-({[(1R)-1-(4-methylphenyl)ethyl]amino}methyl)-2-furyl]benzoyl}amino)-4-(4-cyanophenyl)butanoate], the negative logarithm of the IC50 (pIC50) is 5.90. Consider `Cc1ccc([C@@H](C)NCc2ccc(-c3ccc(Cl)c(C(=O)N[C@@H](CNCCC4CCNCC4)Cc4ccc(C#N)cc4)c3)o2)cc1` [Example 70], for which the negative logarithm of the IC50 (pIC50) is 7.07.
